Test results: the CheMixHub viscosity set

Assay: xn = mol fraction of the nth substance listed

CCCCCCOC(C)=O + CCCCCCO
viscosity [mPa·s], 101.33 kPa
Conditions	x1 = 0.0998	x1 = 0.2013	x1 = 0.3012	x1 = 0.4056	x1 = 0.4937	x1 = 0.6002	x1 = 0.7021	x1 = 0.8045	x1 = 0.9018
293.15 K	4.012	3.281	2.721	2.266	1.964	1.677	1.464	1.299	1.176
303.15 K	3.073	2.502	2.065	1.71	1.474	1.249	1.083	0.954	0.858
313.15 K	2.301	1.899	1.584	1.332	1.164	1.005	0.887	0.795	0.726

CCC(C)=O + CCCCCO
viscosity [mPa·s], 100 kPa
Conditions	x1 = 0.0814	x1 = 0.1574	x1 = 0.2391	x1 = 0.3486	x1 = 0.4417	x1 = 0.5529	x1 = 0.6492	x1 = 0.7389	x1 = 0.8509	x1 = 0.9389
293.15 K	2.92	2.27	1.8	1.33	1.07	0.84	0.66	0.55	0.42	0.39
303.15 K	2.31	1.82	1.46	1.12	0.91	0.73	0.61	0.52	0.45	0.4
313.15 K	1.8	1.45	1.2	0.92	0.77	0.63	0.54	0.46	0.4	0.36
323.15 K	1.45	1.18	0.99	0.78	0.66	0.54	0.46	0.4	0.35	0.32

CCCCCCOC(C)=O + CCCCCO
viscosity [mPa·s], 101.33 kPa
Conditions	x1 = 0.1057	x1 = 0.2038	x1 = 0.3074	x1 = 0.4005	x1 = 0.5019	x1 = 0.6009	x1 = 0.7083	x1 = 0.8029	x1 = 0.9041
293.15 K	3.347	2.798	2.346	2.028	1.755	1.548	1.373	1.253	1.153
303.15 K	2.392	2.002	1.682	1.456	1.262	1.115	0.991	0.906	0.835
313.15 K	1.889	1.594	1.352	1.181	1.035	0.924	0.83	0.766	0.712

COC(C)=O + CCCCCO
298.15 K, 101.33 kPa
Conditions	viscosity [mPa·s]
x1 = 0.1014	2.381
x1 = 0.2082	1.64
x1 = 0.2879	1.292
x1 = 0.3821	1.011
x1 = 0.4786	0.823
x1 = 0.5766	0.69
x1 = 0.6788	0.575
x1 = 0.7517	0.505
x1 = 0.846	0.425

C1CCCCC1 + CCCCO
Conditions	viscosity [mPa·s]
298.15 K, 101 kPa, x1 = 0.1014	2.225
298.15 K, 101 kPa, x1 = 0.1996	1.945
298.15 K, 101 kPa, x1 = 0.2962	1.699
298.15 K, 101 kPa, x1 = 0.4016	1.468
298.15 K, 101 kPa, x1 = 0.5032	1.274
298.15 K, 101 kPa, x1 = 0.597	1.123
298.15 K, 101 kPa, x1 = 0.6908	1.02
298.15 K, 101 kPa, x1 = 0.7923	0.9371
298.15 K, 101 kPa, x1 = 0.8856	0.8954
298.15 K, 101 kPa, x2 = 0.0216	0.876
298.15 K, 101 kPa, x2 = 0.1208	0.903
298.15 K, 101 kPa, x2 = 0.155	0.921
298.15 K, 101 kPa, x2 = 0.1796	0.931
298.15 K, 101 kPa, x2 = 0.3673	1.09
298.15 K, 101 kPa, x2 = 0.532	1.357
298.15 K, 101 kPa, x2 = 0.7128	1.752
298.15 K, 101 kPa, x2 = 0.8385	2.07
303.15 K, 101 kPa, x2 = 0.6491	1.196
303.15 K, 101.33 kPa, x2 = 0.2111	0.9317
303.15 K, 101.33 kPa, x2 = 0.298	0.9971
303.15 K, 101.33 kPa, x2 = 0.4038	1.095
303.15 K, 101.33 kPa, x2 = 0.489	1.187
303.15 K, 101.33 kPa, x2 = 0.8096	1.719
303.15 K, 101.33 kPa, x2 = 0.8981	1.941
308.15 K, 101 kPa, x2 = 0.0216	0.745
308.15 K, 101 kPa, x2 = 0.0714	0.754
308.15 K, 101 kPa, x2 = 0.1208	0.765
308.15 K, 101 kPa, x2 = 0.155	0.779
308.15 K, 101 kPa, x2 = 0.1796	0.787
308.15 K, 101 kPa, x2 = 0.3673	0.898
308.15 K, 101 kPa, x2 = 0.532	1.089
308.15 K, 101 kPa, x2 = 0.6491	1.083
308.15 K, 101 kPa, x2 = 0.7128	1.387
308.15 K, 101 kPa, x2 = 0.8385	1.627
313.15 K, 101 kPa, x1 = 0.1014	1.547
313.15 K, 101 kPa, x1 = 0.1996	1.363
313.15 K, 101 kPa, x1 = 0.2962	1.203
313.15 K, 101 kPa, x1 = 0.4016	1.054
313.15 K, 101 kPa, x1 = 0.5032	0.934
313.15 K, 101 kPa, x1 = 0.597	0.8408
313.15 K, 101 kPa, x1 = 0.6908	0.7773
313.15 K, 101 kPa, x1 = 0.7923	0.7265
313.15 K, 101 kPa, x1 = 0.8856	0.6993
313.15 K, 101 kPa, x2 = 0.6491	0.9869
318.15 K, 101 kPa, x2 = 0.0216	0.643
318.15 K, 101 kPa, x2 = 0.0714	0.645
318.15 K, 101 kPa, x2 = 0.1208	0.652
318.15 K, 101 kPa, x2 = 0.155	0.664
318.15 K, 101 kPa, x2 = 0.1796	0.672
318.15 K, 101 kPa, x2 = 0.3673	0.754
318.15 K, 101 kPa, x2 = 0.532	0.895
318.15 K, 101 kPa, x2 = 0.7128	1.114
318.15 K, 101 kPa, x2 = 0.8385	1.298

CCC(C)=O + CCCCO
viscosity [mPa·s]
Conditions	298.15 K	308.15 K	318.15 K
100 kPa, x1 = 0.0997	–	1.465	–
100 kPa, x1 = 0.1999	–	1.115	–
101.3 kPa, x2 = 0.0987	0.428	0.385	0.349
101.3 kPa, x2 = 0.1988	0.476	0.425	0.382
101.3 kPa, x2 = 0.3004	0.538	0.476	0.425
101.3 kPa, x2 = 0.3991	0.616	0.54	0.478
101.3 kPa, x2 = 0.4973	0.722	0.626	0.547
101.3 kPa, x2 = 0.5972	0.861	0.737	0.636
101.3 kPa, x2 = 0.6979	1.06	0.891	–
101.3 kPa, x2 = 0.7995	1.361	1.121	0.931
101.3 kPa, x2 = 0.9028	–	1.458	1.188
